This note sets out measurements from ChEMBL document CHEMBL4376817, “Drug Discovery Targeting Anaplastic Lymphoma Kinase (ALK)” (J Med Chem, 2019).

The structures appear in SMILES notation.

Series [1] addresses Vascular endothelial growth factor receptor 2 (Homo sapiens, UniProt P35968).
A further series relates to IMR-32. Nature of the series: Cytotoxicity against human IMR32 cells. The series is classed as functional, cell-based.
For the next series, the system named is SH-SY5Y. Nature of the series: Cytotoxicity against human SH-SY5Y cells. The series is classed as functional, cell-based.
Series [2] has as its target T1, ALK tyrosine kinase receptor (Homo sapiens, UniProt Q9UM73).
The nature of a further series: physchem. As to conditions: octanol/water.
Series [3] concerns NCI-H3122. Nature of the series: cells. As to conditions: Homo sapiens.
In series [4] the test system is NCI-H3122. Nature of the series: Potency index, ratio of crizotinib IC50 to test compound IC50 for cytotoxicity against human NCI-H3122 cells harboring EML4-ALK E13;A20 mutant. The series is classed as functional.
The target in series [5] is T1, ALK tyrosine kinase receptor. This is another data set of the same source.
The subject of series [6] is NCI-H3122. Nature of the series: Cytotoxicity against human NCI-H3122 cells harboring EML4-ALK E13;A20 mutant incubated for 72 hrs by Cell titer blue assay. The format is functional, cell-based. As to conditions: NCI-H3122, 72 h. A general note: Resazurin is reduced to fluorescent resorufin, in cell work by metabolically active cells.
Series [7] concerns the target Hepatocyte growth factor receptor (Homo sapiens, UniProt P08581). Nature of the series: Inhibition of c-MET (unknown origin) by kinome scan-based assay.

T1 sequence (Q9UM73 whole entry): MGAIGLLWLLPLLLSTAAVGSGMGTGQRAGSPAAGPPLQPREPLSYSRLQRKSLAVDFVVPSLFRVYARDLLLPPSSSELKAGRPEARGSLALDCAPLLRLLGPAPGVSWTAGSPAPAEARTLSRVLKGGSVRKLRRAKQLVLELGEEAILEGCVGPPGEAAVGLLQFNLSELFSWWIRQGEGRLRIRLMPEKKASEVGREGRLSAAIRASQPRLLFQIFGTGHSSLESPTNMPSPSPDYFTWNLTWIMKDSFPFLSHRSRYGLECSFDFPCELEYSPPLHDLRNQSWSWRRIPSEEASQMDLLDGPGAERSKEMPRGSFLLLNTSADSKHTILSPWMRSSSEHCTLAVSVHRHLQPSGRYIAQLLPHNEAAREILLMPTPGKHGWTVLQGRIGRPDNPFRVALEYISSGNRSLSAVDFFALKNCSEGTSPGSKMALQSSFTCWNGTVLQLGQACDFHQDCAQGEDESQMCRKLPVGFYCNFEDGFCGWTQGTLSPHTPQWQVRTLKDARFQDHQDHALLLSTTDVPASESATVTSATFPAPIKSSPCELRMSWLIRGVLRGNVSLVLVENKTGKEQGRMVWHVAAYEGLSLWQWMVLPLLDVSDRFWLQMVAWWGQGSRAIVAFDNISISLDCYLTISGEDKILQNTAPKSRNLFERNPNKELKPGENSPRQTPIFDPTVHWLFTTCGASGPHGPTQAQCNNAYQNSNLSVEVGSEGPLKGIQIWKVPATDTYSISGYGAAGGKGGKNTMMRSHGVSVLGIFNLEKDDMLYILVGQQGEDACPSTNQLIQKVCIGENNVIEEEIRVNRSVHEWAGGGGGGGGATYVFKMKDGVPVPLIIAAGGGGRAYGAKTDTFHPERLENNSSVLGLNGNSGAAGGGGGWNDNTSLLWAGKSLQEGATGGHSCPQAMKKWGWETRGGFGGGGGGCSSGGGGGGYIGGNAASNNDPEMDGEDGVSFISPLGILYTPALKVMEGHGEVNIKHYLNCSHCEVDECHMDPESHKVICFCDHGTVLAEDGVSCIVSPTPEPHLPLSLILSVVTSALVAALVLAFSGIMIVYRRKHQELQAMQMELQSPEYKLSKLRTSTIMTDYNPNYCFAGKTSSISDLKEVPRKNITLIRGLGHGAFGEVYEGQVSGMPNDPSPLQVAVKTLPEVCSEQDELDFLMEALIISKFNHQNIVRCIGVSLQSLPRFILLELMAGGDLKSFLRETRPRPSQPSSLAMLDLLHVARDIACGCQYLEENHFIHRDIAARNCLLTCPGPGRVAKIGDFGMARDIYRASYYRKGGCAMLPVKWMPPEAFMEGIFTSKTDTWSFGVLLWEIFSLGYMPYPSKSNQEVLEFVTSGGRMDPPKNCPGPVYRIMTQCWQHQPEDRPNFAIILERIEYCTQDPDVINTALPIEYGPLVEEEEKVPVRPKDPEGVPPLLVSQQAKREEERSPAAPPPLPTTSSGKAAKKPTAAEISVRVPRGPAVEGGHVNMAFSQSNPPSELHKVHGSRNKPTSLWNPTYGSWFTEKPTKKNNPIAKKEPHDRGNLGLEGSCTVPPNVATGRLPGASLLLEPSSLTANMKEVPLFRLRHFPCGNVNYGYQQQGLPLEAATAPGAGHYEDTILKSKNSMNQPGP
Chain of Hepatocyte growth factor receptor (P08581 whole entry): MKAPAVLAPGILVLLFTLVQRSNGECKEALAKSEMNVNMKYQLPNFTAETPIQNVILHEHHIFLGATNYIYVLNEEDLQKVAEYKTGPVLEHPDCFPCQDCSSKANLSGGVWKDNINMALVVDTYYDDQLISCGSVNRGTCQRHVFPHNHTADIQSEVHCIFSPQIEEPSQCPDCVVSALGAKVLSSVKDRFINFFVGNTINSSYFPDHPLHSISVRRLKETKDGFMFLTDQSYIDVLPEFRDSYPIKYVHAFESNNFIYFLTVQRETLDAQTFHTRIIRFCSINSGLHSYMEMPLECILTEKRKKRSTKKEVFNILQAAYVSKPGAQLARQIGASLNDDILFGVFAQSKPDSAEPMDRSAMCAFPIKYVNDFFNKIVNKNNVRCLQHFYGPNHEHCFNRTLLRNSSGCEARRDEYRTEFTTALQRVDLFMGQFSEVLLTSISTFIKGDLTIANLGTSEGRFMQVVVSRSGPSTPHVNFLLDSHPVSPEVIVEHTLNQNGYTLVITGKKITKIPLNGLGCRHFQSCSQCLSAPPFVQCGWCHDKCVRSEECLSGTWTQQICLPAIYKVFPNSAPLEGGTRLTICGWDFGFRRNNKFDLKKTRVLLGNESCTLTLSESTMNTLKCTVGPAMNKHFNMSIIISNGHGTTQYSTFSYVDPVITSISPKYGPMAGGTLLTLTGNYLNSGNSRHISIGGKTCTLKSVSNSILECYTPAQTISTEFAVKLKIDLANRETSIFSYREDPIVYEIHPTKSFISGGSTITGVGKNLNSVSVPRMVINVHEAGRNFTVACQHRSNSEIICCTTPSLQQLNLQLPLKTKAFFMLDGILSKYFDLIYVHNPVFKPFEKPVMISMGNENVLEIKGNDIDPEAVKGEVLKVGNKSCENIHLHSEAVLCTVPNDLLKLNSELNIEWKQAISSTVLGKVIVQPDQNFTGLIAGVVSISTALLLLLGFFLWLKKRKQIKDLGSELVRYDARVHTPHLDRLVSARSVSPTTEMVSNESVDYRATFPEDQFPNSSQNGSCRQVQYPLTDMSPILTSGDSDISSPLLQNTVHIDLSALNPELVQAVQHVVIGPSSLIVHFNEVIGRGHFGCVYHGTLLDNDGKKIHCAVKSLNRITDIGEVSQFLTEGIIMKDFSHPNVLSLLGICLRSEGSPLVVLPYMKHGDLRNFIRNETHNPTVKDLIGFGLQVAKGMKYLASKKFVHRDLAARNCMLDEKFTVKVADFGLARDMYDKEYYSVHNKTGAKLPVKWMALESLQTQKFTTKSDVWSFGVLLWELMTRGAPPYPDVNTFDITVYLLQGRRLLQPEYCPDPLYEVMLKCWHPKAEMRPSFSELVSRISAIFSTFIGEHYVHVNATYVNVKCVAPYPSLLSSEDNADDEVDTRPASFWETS
Chain of Vascular endothelial growth factor receptor 2 (P35968 whole entry): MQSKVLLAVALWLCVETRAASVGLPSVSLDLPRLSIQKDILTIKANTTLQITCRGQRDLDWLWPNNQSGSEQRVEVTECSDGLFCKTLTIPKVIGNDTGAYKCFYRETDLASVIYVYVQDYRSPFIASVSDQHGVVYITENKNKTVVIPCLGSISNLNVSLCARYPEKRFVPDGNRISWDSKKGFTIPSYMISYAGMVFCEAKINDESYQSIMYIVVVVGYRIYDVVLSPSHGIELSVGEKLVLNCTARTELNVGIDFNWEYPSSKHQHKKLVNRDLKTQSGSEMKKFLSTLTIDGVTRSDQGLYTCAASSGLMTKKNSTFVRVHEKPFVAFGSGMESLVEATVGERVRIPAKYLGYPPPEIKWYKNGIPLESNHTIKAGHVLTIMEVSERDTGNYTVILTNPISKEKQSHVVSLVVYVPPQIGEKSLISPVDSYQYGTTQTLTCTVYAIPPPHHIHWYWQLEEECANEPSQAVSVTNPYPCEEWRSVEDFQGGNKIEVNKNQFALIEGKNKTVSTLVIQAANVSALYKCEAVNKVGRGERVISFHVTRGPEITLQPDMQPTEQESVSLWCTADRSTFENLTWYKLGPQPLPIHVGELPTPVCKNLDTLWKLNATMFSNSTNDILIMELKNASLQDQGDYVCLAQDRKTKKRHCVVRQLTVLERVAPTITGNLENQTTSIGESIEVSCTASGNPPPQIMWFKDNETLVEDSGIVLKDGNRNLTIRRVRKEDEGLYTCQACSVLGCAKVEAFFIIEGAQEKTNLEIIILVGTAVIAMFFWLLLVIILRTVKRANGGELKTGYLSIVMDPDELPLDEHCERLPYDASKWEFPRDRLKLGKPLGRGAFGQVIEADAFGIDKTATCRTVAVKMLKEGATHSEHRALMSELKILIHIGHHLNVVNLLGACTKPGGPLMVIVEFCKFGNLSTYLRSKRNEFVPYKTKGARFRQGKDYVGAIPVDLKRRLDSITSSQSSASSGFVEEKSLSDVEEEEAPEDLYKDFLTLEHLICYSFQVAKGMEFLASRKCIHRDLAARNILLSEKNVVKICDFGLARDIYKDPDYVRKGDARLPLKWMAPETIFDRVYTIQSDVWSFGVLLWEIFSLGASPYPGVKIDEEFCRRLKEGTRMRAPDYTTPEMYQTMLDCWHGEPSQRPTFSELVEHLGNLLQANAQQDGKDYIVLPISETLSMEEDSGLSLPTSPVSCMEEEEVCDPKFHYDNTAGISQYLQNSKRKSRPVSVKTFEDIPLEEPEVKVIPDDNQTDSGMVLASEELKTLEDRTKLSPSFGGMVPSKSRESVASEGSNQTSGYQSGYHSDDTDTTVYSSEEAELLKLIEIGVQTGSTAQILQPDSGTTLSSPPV

One may read the IC50 as the midpoint of a concentration-inhibition curve. A higher IC50 goes with a need for much substance. Turning to `CCc1cc2c(cc1N1CCN(C3COC3)CC1)C(C)(C)c1[nH]c3cc(C#N)ccc3c1C2=O`, the IC50 in series [1] is > 5000 nM.

Usually Ki stands for a dissociation constant, usually derived from enzyme kinetics or from competition with a known ligand. Low values mean higher affinity, high ones lower affinity. Turning to `COc1cc(N2CCC(N)CC2)ccc1Nc1ncc(Cl)c(-c2c[nH]c3ccccc23)n1`, the IC50 is 2.8 nM in the series on IMR-32 and 1.7 nM in the series with SH-SY5Y. The molecule further yielded a Ki in [2] of 0.75 nM.

As usually defined, the logD is lipophilicity at a set pH, counting ionised and neutral species. Low values mean lower lipophilicity, high ones higher lipophilicity. In “physchem”, `Cc1nn(C)c2c1Cc1cnc(N)c(c1)O[C@H](C)c1cc(F)ccc1C(=O)N(C)C2` returned a logD of 2.2.

In the case of `CCc1cc2c(cc1N1CCC(N3CCOCC3)CC1)C(C)(C)c1[nH]c3cc(C#N)ccc3c1C2=O` [ALECTINIB], the midpoint of inhibition in the series with NCI-H3122 [3], the IC50, lay at 9 nM.

Regarding `C[C@@H]1CN(C(=O)c2ccc(NC(=O)c3cc(O[C@H](C)c4c(Cl)ccc(F)c4Cl)c(N)nn3)cc2)C[C@H](C)N1` [ENSARTINIB], in the series with NCI-H3122 [4], the “Ratio IC50” value stood at 10. The IC50 in [5] is < 0.4 nM; with NCI-H3122 [6], 15 nM; in [7] it was 0.74 nM.
